From US20250115597A1, “TYK2 INHIBITORS AND COMPOSITIONS AND METHODS THEREOF” (LYNK PHARMACEUTICALS CO. LTD., priority 2021, published 2025)

Assays:
TYK2-JH2 domain = target: T1, TYK2-JH2 domain (Homo sapiens, UniProt P29597); experiment: Binding activity test for JH2 domain of TYK2 (Tb-antibody/tracer FRET)
T1 construct: IC50 on JH2 domain activity (nM)
Protocol: Binding Activity Test for […] Domain of JAK1 and TYK2 The compounds are prepared in DMSO for 200× top dose, then serial dilute it with 27-fold for 3 more points. Add 8 μL/well in echo source plate, echo will add 75 nL/well with 3-fold serial dilution for 11 points in assay plate. 75 nL DMSO for high control and low control. […] For low control, add 5 μL/well assay buffer. And then spin down at 1000 rpm and centrifuge for 30 seconds. After enzyme system prepared, add 5 μL of Tb-antibody solution into each wells of assay plate. Spin down at 1000 rpm and centrifuge for 30 sec. After Tb-antibody added, also add 5 μL of tracer into the assay plate. Spin down at 1000 rpm and centrifuge for 30 sec. Incubate for 60 mins at 25° C. firstly and then continue to incubate the plate at 4° C. overnight. Read by envision in FRET mode. The Luminescence value was recorded by a multi-label reader Envision (PerkinElmer).

[1] = target: T2, Ba/F3-FL-TYK2-P760L cells (Homo sapiens, UniProt P29597, P760L, cells depend on it); experiment: Anti-proliferative assay, Ba/F3-FL-TYK2-P760L cells (Cell-Titer Glo); format: cell-based; conditions: 72 h, read-out: BaF3-FL-T2P760L IC50
T2 construct: BaF3-FL-T2P760L (nM)
Summary of the method: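 Compound exposure ran 72 h at 37 °C in 5% CO2 across nine 3-fold concentrations from a 20 μM top dose, added 24 h after seeding 2000 cells/well.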

T1 sequence (P29597 589-875 limits assumed): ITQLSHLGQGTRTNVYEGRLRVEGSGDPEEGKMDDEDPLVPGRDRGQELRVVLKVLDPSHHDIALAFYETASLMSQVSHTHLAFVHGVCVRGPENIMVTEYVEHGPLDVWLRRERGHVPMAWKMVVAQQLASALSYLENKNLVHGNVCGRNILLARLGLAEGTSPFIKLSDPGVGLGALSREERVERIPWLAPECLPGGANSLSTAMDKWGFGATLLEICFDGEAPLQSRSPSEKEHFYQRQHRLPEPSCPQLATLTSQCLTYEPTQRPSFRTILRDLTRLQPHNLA
T2 sequence (P29597 whole entry P760L): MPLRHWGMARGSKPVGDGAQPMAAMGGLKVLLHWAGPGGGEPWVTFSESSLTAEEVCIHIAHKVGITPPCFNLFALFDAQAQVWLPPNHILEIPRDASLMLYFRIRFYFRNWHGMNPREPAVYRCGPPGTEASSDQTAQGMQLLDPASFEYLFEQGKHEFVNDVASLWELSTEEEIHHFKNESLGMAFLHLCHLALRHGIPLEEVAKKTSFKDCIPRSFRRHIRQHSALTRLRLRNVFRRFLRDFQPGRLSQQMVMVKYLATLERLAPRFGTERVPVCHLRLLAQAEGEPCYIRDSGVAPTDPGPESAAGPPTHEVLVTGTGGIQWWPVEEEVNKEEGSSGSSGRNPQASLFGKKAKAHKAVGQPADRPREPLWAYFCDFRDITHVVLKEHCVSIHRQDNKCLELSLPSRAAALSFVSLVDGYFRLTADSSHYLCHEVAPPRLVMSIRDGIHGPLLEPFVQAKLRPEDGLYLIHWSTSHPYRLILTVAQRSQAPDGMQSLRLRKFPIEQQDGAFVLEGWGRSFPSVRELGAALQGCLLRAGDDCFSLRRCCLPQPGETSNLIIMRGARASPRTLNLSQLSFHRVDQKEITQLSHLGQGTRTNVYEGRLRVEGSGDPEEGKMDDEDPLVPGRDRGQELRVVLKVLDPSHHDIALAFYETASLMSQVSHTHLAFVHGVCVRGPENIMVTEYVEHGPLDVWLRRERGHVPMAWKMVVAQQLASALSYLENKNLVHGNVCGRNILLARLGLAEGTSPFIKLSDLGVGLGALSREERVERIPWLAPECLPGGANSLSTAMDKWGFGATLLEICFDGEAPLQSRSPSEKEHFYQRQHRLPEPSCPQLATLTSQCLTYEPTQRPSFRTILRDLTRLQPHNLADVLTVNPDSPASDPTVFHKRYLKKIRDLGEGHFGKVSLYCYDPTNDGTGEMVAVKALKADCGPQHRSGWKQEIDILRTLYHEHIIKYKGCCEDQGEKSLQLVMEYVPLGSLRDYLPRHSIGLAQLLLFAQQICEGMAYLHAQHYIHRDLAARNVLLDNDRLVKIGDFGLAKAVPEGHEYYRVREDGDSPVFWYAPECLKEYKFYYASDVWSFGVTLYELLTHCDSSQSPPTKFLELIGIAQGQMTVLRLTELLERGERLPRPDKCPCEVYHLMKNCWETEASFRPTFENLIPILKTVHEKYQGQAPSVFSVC

SMILES | IC50 (TYK2-JH2 domain) [nM] | GI50 [1] [nM]
[2H]C([2H])([2H])NC(=O)c1cnc(NC(=O)C2CC2)cc1Nc1cn(C2CC2)c2ncn(CC)c(=O)c12 [Example 211] | 0.71 | 174
[2H]C([2H])([2H])NC(=O)c1cnc(NC(=O)C2CC2)cc1Nc1ccn2cnc(CC)c2c1OC [Example 57, 6-(Cyclopropanecarboxamido)-4-((1-ethyl-8-methoxyimidazo[1,5-a]pyridin-7-yl)amino)-N-(methyl-d3)nicotinamide] | 5.21 | > 5000
[2H]C([2H])([2H])NC(=O)c1cnc(NC(=O)C2CC2)nc1Nc1ccc2cnn(CC)c2c1OC [Example 135, 2-(Cyclopropanecarboxamido)-4-((1-ethyl-7-methoxy-1H-indazol-6-yl)amino)-N-(methyl-d3)pyrimidine-5-carboxamide] | 1.46 | 128
[2H]C([2H])([2H])NC(=O)c1cnc(NC(=O)C2CC2)cc1Nc1ncn2ncc(C)c2c1OC [Example 279, 6-(Cyclopropanecarboxamido)-4-((4-methoxy-3-methylpyrazolo[1,5-c]pyrimidin-5-yl)amino)-N-(methyl-d3)nicotinamide] | 0.33 | 70.1
[2H]C([2H])([2H])NC(=O)c1nnc(NC(=O)C2CC2)cc1Nc1ccc2cnn(CC)c2c1OC [Example 144, 6-(Cyclopropanecarboxamido)-4-((1-ethyl-7-methoxy-1H-indazol-6-yl)amino)-N-(methyl-d3)pyridazine-3-carboxamide] | 1.29 | 344
[2H]C([2H])([2H])NC(=O)c1cnc(NC(=O)C2CC2)cc1Nc1cn(C)c2ccn(C(C)C(F)(F)F)c(=O)c12 (single isomer, unassigned) [Example 190A, (R*)-6-(Cyclopropanecarboxamido)-N-(methyl-d3)-4-((1-methyl-4-oxo-5-(1,1,1-trifluoropropan-2-yl)-4,5-dihydro-1H-pyrrolo[3,2-c]pyridin-3-yl)amino)nicotinamide] | 0.622 | 113
[2H]C([2H])([2H])NC(=O)c1cnc(NC(=O)C2CC2)cc1Nc1cn(C)c2ncn(C(C)C(F)(F)F)c(=O)c12 (stereo not drawn) [Example 217, 6-(Cyclopropanecarboxamido)-N-(methyl-d3)-4-((7-methyl-4-oxo-3-(1,1,1-trifluoropropan-2-yl)-4,7-dihydro-3H-pyrrolo[2,3-d]pyrimidin-5-yl)amino)nicotinamide] | 1.31 | 205
[2H]C([2H])([2H])NC(=O)c1cnc(NC(=O)C2CC2)cc1Nc1ccc2nn(C)c(CC)c2c1OC [Example 232, 6-(Cyclopropanecarboxamido)-4-((3-ethyl-4-methoxy-2-methyl-2H-indazol-5-yl)amino)-N-(methyl-d3)nicotinamide] | 1.58 | 1700
CCN1C(=O)Cc2ccc(Nc3cc(NC(=O)C4CC4)ncc3C(=O)NC)c(OC)c21 [Example 205, 6-(Cyclopropanecarboxamido)-4-((1-ethyl-7-methoxy-2-oxoindolin-6-yl)amino)-N-methylnicotinamide] | 1.3 | 252
[2H]C([2H])([2H])NC(=O)c1cnc(NC(=O)C2CC2)cc1Nc1ncn2ncc(CC)c2c1OC [Example 280, 6-(Cyclopropanecarboxamido)-4-((3-ethyl-4-methoxypyrazolo[1,5-c]pyrimidin-5-yl)amino)-N-(methyl-d3)nicotinamide] | 0.18 | 40.2
[2H]C([2H])([2H])NC(=O)c1cnc(NC(=O)C2CC2)cc1Nc1cn(CC)c2ncn(CC(F)(F)F)c(=O)c12 [Example 212, 6-(Cyclopropanecarboxamido)-4-((7-ethyl-4-oxo-3-(2,2,2-trifluoroethyl)-4,7-dihydro-3H-pyrrolo[2,3-d]pyrimidin-5-yl)amino)-N-(methyl-d3)nicotinamide] | 0.601 | 244
CCn1ncc2ccc(Nc3cc(NC(=O)C4CC4)ncc3Cl)c(OC)c21 [Example 272, N-(5-chloro-4-((1-ethyl-7-methoxy-1H-indazol-6-yl)amino)pyridin-2-yl)cyclopropanecarboxamide] | 138 | 4760
[2H]C([2H])([2H])NC(=O)c1cnc(NC(=O)C2CC2)cc1Nc1ncn2ncc(C#N)c2c1OC [Example 282, 4-((3-Cyano-4-methoxypyrazolo[1,5-c]pyrimidin-5-yl)amino)-6-(cyclopropanecarboxamido)-N-(methyl-d3)nicotinamide] | 0.27 | 75.2
[2H]C([2H])([2H])NC(=O)c1cnc(NC(=O)C2CC2)cc1Nc1ccn2ncc(CCC)c2c1OC [Example 215, 6-(Cyclopropanecarboxamido)-4-((4-methoxy-3-propylpyrazolo[1,5-a]pyridin-5-yl)amino)-N-(methyl-d3)nicotinamide] | 0.532 | 159
[2H]C([2H])([2H])NC(=O)c1cnc(NC(=O)C2CC2)cc1Nc1cnc2cnn(CC)c2c1OC [Example 265, 6-(Cyclopropanecarboxamido)-4-((1-ethyl-7-methoxy-1H-pyrazolo[4,3-b]pyridin-6-yl)amino)-N-(methyl-d3)nicotinamide] | 69.2 | > 5000
[2H]C([2H])([2H])NC(=O)c1cnc(NC(=O)C2CC2)cc1Nc1ccc2nc(C)n(CC)c2c1OC [Example 168, 6-(Cyclopropanecarboxamido)-4-((1-ethyl-7-methoxy-2-methyl-1H-benzo[d]imidazol-6-yl)amino)-N-(methyl-d3)nicotinamide] | 2.15 | 728
CCn1ncc2ccc(Nc3cc(NC(=O)C4CC4)ncc3C(=O)OC)c(OC(F)(F)F)c21 [Example 148, Methyl 6-(cyclopropanecarboxamido)-4-((1-ethyl-7-(trifluoromethoxy)-1H-indazol-6-yl)amino)nicotinate] | > 298 | 242
[2H]C([2H])([2H])NC(=O)c1cnc(NC(=O)C(F)(F)F)cc1Nc1ccc2cnn(CC)c2c1OC [Example 271, 4-((1-Ethyl-7-methoxy-1H-indazol-6-yl)amino)-N-(methyl-d3)-6-(2,2,2-trifluoroacetamido)nicotinamide] | 25.6 | 2610
CCc1nn(C)c2ccc(Nc3cc(NC(=O)C4CC4)ncc3C(=O)OC)c(OC)c12 [Example 149, Methyl 6-(cyclopropanecarboxamido)-4-((3-ethyl-4-methoxy-1-methyl-1H-indazol-5-yl)amino)nicotinate] | 62.8 | 732
[2H]C([2H])([2H])NC(=O)c1cnc(NC(=O)C2CC2)cc1Nc1ncn2ncc(Cl)c2c1OC [Example 281, 4-((3-Chloro-4-methoxypyrazolo[1,5-c]pyrimidin-5-yl)amino)-6-(cyclopropanecarboxamido)-N-(methyl-d3)nicotinamide] | 0.25 | 48.2
[2H]C([2H])([2H])NC(=O)c1cnc(NC(=O)C2CC2)cc1Nc1ccc2cnc(CC)n2c1OC [Example 227, 6-(Cyclopropanecarboxamido)-4-((3-ethyl-5-methoxyimidazo[1,5-a]pyridin-6-yl)amino)-N-(methyl-d3)nicotinamide] | 7.53 | > 5000
[2H]C([2H])([2H])NC(=O)c1cnc(NC(=O)C2CC2)cc1Nc1cn(CC(F)(F)F)c2ncn(CC)c(=O)c12 [Example 214, 6-(Cyclopropanecarboxamido)-4-((3-ethyl-4-oxo-7-(2,2,2-trifluoroethyl)-4,7-dihydro-3H-pyrrolo[2,3-d]pyrimidin-5-yl)amino)-N-(methyl-d3)nicotinamide] | 0.557 | 217
[2H]C([2H])([2H])NC(=O)c1cnc(NC(=O)C2CC2)cc1Nc1ccc2c(c(CC)nn2C)c1OC [Example 150, 6-(Cyclopropanecarboxamido)-4-((3-ethyl-4-methoxy-1-methyl-1H-indazol-5-yl)amino)-N-(methyl-d3)nicotinamide] | 1.87 | 231
[2H]C([2H])([2H])NC(=O)c1cnc(NC(=O)C2CC2)cc1Nc1ccc2cnn(CCN(C)C)c2c1OC [Example 274, 6-(Cyclopropanecarboxamido)-4-((1-(2-(dimethylamino)ethyl)-7-methoxy-1H-indazol-6-yl)amino)-N-(methyl-d3)nicotinamide] | 34.4 | > 5000
[2H]C([2H])([2H])NC(=O)c1cnc(NC(=O)C2CC2)cc1Nc1cn(C)c2ncn(CC(F)F)c(=O)c12 [Example 194, 6-(Cyclopropanecarboxamido)-4-((3-(2,2-difluoroethyl)-7-methyl-4-oxo-4,7-dihydro-3H-pyrrolo[2,3-d]pyrimidin-5-yl)amino)-N-(methyl-d3)nicotinamide] | 0.756 | 562
COC(=O)c1cnc(NC(=O)C2CC2)cc1Nc1cn(C)c2ccn(C)c(=O)c12 [Example 116, Methyl 6-(cyclopropanecarboxamido)-4-((1,5-dimethyl-4-oxo-4,5-dihydro-1H-pyrrolo[3,2-c]pyridin-3-yl)amino)nicotinate] | 3.35 | 102
[2H]C([2H])([2H])NC(=O)c1cnc(NC(=O)C2CC2)cc1Nc1csc2c(Cl)cn(CC)c(=O)c12 [Example 173, 4-((7-Chloro-5-ethyl-4-oxo-4,5-dihydrothieno[3,2-c]pyridin-3-yl)amino)-6-(cyclopropanecarboxamido)-N-(methyl-d3)nicotinamide] | 0.817 | 86.5
